Source: US20240287154A1, “MC3R AGONIST PEPTIDES” (The Regents of the University of Michigan, priority 2021, published 2024)
pEC50: −log10 of the molar value. Non-standard residues stand in square brackets, D forms with d. Residues, ends and D or L forms follow the SMILES beside them. Nle = CCCC[C@H](N)C(=O)O; Aib = CC(C)(N)C(=O)O

Tests used:
[1] = molecular target: human MC4R (Homo sapiens, UniProt P32245); assay: Intracellular cAMP levels in live cells, MC3R selectivity relative to MC4R; type: cell-based; details: cAMP assays in human MC3R and human MC4R stable cell lines
[2] = molecular target: T1, human MC3R (Homo sapiens, UniProt P41968); assay: Intracellular cAMP levels in live cells, MC3R agonist activity; type: cell-based; details: cAMP split-luciferase reporter cell line stably expressing human MC3R; direct agonist effect, measurement window 1
T1 construct: expressed in transfected cells
Description: The stable cell lines were grown and maintained in selection media consisting of Dulbecco's modified Eagle media (DMEM) with 4.5 g/l D-glucose, and 4 mM L-glutamine (Thermo Fisher Scientific, Waltham, MA), supplemented with 10% fetal bovine serum, 100 units/ml penicillin, 100 μg/ml streptomycin, 2.5 μg/ml amphotericin B, 200 μg/ml hygromycin B (for positive selection of the GScAMP22f luciferase reporter), and Geneticin™ (G418) 700 μg/ml (for MC3R or MC4R selection). Actual serum concentration during the assay is estimated to be about 1%. Cell line identity is routinely verified by qPCR and MC3R- and MC4R-specific oligonucleotides.
The assay for the determination of the CAMP response in live cells was described previously. […] Ccells were seeded at a density of 20,000 cells per well using 384-well poly-D lysine-coated, clear bottom, and black-wall assay plates (Corning Inc. Corning, NJ). Cells were allowed to attach to the plates for 18 to 24 h after which growth media was removed and 20 ul of 4% D-luciferin (Promega) in CO2 independent, serum-free medium (Thermo Fisher Scientific) was added to each well. […] Intracellular cAMP levels were measured using an FDSS 7000EX Functional Drug Screening System (Hamamatsu Photonics, Hamamatsu, Japan) in the Center for Chemical Genomics at the Life Sciences Institute. This instrument allowed the in-line addition of test-peptides and receptor agonists while simultaneously acquiring the luminescence signal from live cells. […] A submaximal forskolin (20 μM) concentration was also included to serve as a normalization reference to account for cell number variations and differences in assay transducer efficiency between cell lines.
With this set up it was possible to evaluate the direct agonist effect of the test-peptides on the MC3R and MC4R cell lines during measurement window 1, while the antagonist profile in the presence of EC90 α-MSH was determined on measurement window 2. […] EC50 or IC50 potency values were determined by non-linear regression by fitting the data to a sigmoid four-parameter variable slope model using the GraphPad Prism version 8.4 software package (San Diego CA).

[3] = in vitro; details: for half-life at 1 µM / remaining at 5 min, 1 µM / remaining at 0.25 h, 1 µM / remaining at 0.5 h, 1 µM / remaining at 1 h, 1 µM: mouse, plasma; for Mouse Plasma Stability, time point 0 min: pooled mouse plasma, 37° C.
Description: Pooled mouse plasma was prepared and stored at −80° C. prior to use. 396 μL mouse plasma was incubated at 37° C. for 5 minutes in 1.5 mL microcentrifuge tubes. 4 μL of 100 μM test or control compound/peptide was added to each tube and incubated for 0.5, 15, 30, 60, 120, or 240 minutes. An aliquot of 40 μL of each reaction was stopped by the addition of 4 volume of cold acetonitrile containing 200 ng/mL of Setmelanotide as an internal standard (IS). The incubation solution was centrifuged at 3500 rpm for 10 minutes to precipitate protein. The supernatant was used for LC/MS/MS analysis. The natural log peak area ratio (compound peak […] area/internal standard peak area) was plotted against time and the gradient of the line determined.

Sequence of human MC4R (P32245 whole entry): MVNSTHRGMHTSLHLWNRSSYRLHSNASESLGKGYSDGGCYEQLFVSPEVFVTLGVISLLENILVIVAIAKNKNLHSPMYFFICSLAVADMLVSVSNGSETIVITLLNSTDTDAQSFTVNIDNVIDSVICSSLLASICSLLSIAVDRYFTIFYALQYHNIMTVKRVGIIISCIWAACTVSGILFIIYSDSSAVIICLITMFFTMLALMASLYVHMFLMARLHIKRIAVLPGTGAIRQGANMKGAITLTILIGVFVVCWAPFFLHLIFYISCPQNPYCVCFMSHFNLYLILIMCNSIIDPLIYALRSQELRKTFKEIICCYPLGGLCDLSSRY
T1 sequence (P41968 whole entry): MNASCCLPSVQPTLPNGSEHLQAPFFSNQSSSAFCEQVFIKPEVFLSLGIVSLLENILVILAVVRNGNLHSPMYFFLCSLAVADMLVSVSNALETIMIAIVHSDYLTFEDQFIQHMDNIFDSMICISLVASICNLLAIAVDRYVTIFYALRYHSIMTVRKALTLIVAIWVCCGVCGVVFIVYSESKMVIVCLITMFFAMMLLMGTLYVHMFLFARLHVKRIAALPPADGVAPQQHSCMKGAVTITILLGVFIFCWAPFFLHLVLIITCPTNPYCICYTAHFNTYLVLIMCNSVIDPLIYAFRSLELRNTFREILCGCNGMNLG

| Structure (SMILES) | MC3R selectivity (relative to MC4R) [1] | pEC50 [2] | half-life at 1 µM [3] [min] | remaining at 5 min, 1 µM [3] [%] | remaining at 0.25 h, 1 µM [3] [%] | remaining at 0.5 h, 1 µM [3] [%] | Mouse Plasma Stability, time point 0 min [3] [%] | remaining at 1 h, 1 µM [3] [%] |
| --- | --- | --- | --- | --- | --- | --- | --- | --- |
| CCCC[C@H](NC(=O)[C@@H](NC(=O)[C@@H](N)Cc1ccc(O)cc1)C(C)C)C(=O)N[C@H](C)C(=O)N[C@@H](Cc1c[nH]cn1)C(=O)N[C@@H](Cc1ccccc1)C(=O)N[C@@H](CCCNC(=N)N)C(=O)N[C@H](Cc1c[nH]c2ccccc12)C(=O)N[C@@H](CC(=O)O)C(=O)N[C@H](CCCNC(=N)N)C(=O)N[C@@H](Cc1ccccc1)C(=O)NCC(=O)O [CTX-1126, Tyr-Val-Nle-D-Ala-His-Phe-Arg-D-Trp-Asp-D-Arg-Phe-Gly] (H-YV[Nle][dA]HFR[dW]D[dR]FG-OH) | 43 | 8.52 | 1.61 | 11.7 | 0.16 | 0.03 | 100 | – |
| CCCC[C@H](NC(=O)[C@@H](NC(=O)[C@@H](N)Cc1ccc(O)cc1)C(C)C)C(=O)N[C@H](C)C(=O)N[C@@H](Cc1c[nH]cn1)C(=O)N[C@@H](Cc1ccccc1)C(=O)N[C@@H](CCCNC(=N)N)C(=O)N[C@H](Cc1c[nH]c2ccccc12)C(=O)N[C@@H](CC(=O)O)C(=O)N[C@@H](CCCNC(=N)N)C(=O)N[C@H](Cc1ccccc1)C(=O)NCC(=O)O [CTX-1127, Tyr-Val-Nle-D-Ala-His-Phe-Arg-D-Trp-Asp-Arg-D-Phe-Gly] (H-YV[Nle][dA]HFR[dW]DR[dF]G-OH) | 95 | 8.60 | 1.28 | 6.71 | 0.25 | 0.27 | 100 | 0.04 |
| CCCC[C@H](NC(=O)[C@@H](NC(=O)[C@@H](N)Cc1ccc(O)cc1)C(C)C)C(=O)NC(C)(C)C(=O)N[C@@H](Cc1c[nH]cn1)C(=O)N[C@@H](Cc1ccccc1)C(=O)N[C@@H](CCCNC(=N)N)C(=O)N[C@H](Cc1c[nH]c2ccccc12)C(=O)N[C@@H](CC(=O)O)C(=O)N[C@@H](CCCNC(=N)N)C(=O)N[C@@H](Cc1ccccc1)C(=O)NCC(=O)O [CTX-1134, Tyr-Val-Nle-Aib-His-Phe-Arg-D-Trp-Asp-Arg-Phe-Gly] (H-YV[Nle][Aib]HFR[dW]DRFG-OH) | 566 | 8.60 | 2.77 | 28.6 | 2.97 | 0.14 | 100 | 0.02 |
